Each structure is given as a SMILES string.

We go through 2 molecules from paper PMC10742508, “The Structure and Nucleotide-Binding Characteristics of Regulated Cystathionine β-Synthase Domain-Containing Pyrophosphatase without One Catalytic Domain” (International Journal of Molecular Sciences, 2023).

Holding throughout (assay type): binding
In assay [1] the target is T1, ΔdhPPase (Desulfitobacterium hafniense, UniProt B8FP42, DEL425-544).
T1 construct: gene Dhaf_1515
T1 sequence (B8FP42 1-423): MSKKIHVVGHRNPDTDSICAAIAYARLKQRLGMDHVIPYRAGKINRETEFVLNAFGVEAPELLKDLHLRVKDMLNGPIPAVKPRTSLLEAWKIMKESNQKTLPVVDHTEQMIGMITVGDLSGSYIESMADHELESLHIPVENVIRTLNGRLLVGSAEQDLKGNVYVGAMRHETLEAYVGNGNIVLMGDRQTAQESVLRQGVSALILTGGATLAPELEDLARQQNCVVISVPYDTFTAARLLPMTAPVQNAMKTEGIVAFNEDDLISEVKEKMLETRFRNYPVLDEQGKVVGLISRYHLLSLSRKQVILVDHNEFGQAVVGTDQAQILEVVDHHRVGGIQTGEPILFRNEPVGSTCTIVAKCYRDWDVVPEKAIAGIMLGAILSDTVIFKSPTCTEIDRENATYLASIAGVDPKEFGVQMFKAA
The assay is described as follows: isothermal titration calorimetry, single-site model. The following applies: read-out: KN. The source says:
isothermal titration calorimetry, single-site model on ΔdhPPase

Assay [2] has as its target T2, dhPPase (full-size CBS-PPase) (Desulfitobacterium hafniense, UniProt B8FP42).
T2 construct: gene Dhaf_1515
The description is as above. The following applies: read-out: KN. The source says:
isothermal titration calorimetry, single-site model on dhPPase (full-size CBS-PPase)

The target in assay [3] is T3, CDC (separate regulatory part of dhPPase) (Desulfitobacterium hafniense, UniProt B8FP42).
T3 construct: gene Dhaf_1515; regulatory insert only (CBS1-DRTGG-CBS2)
The assay is described as follows: ThermoFluor, SYPRO Orange. To be noted: 2 mM MgCl2, 0.1 mM CoCl2, 150 mM KCl, pH 7.2. The source says:
ThermoFluor, SYPRO Orange on CDC (separate regulatory part of dhPPase)
(Differential scanning fluorimetry follows unfolding on heating by fluorescence.)

Assay [4] has as its target T4, ΔdhPPase (Desulfitobacterium hafniense, UniProt B8FP42).
T4 construct: gene Dhaf_1515
T4 sequence (B8FP42 1-423): T1 sequence (B8FP42 1-423)
The assay is described as follows: ThermoFluor, SYPRO Orange. The following applies: 200 µM AMP, 2 mM MgCl2, 0.1 mM CoCl2, 150 mM KCl, pH 7.2; peak II = regulatory part. The source says:
ThermoFluor, SYPRO Orange on ΔdhPPase

Assay [5] has as its target T2, dhPPase (full-size CBS-PPase). The assay is described as follows: ThermoFluor, SYPRO Orange. To be noted: 200 µM AMP, 2 mM MgCl2, 0.1 mM CoCl2, 150 mM KCl, pH 7.2; peak II = regulatory part. The source says: ThermoFluor, SYPRO Orange on dhPPase (full-size CBS-PPase)

T2 sequence (B8FP42 entry or part of it): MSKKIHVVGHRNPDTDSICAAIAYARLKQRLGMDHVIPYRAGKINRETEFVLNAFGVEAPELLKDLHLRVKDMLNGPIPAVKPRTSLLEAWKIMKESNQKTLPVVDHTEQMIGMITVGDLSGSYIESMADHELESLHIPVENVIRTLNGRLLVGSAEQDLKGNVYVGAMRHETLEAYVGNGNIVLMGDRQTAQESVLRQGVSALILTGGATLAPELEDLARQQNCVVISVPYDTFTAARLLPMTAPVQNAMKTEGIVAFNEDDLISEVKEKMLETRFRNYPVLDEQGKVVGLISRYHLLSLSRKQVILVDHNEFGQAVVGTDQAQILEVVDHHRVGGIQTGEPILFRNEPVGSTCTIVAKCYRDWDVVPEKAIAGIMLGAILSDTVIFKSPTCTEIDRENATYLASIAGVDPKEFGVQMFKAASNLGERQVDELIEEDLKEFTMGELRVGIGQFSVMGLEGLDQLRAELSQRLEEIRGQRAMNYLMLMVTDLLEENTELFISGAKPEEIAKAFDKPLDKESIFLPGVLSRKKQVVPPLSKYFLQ

For the molecule `Nc1ncnc2c1ncn2[C@@H]1O[C@H](COP(=O)(O)OP(=O)(O)OP(=O)(O)OP(=O)(O)OC[C@H]2O[C@@H](n3cnc4c(N)ncnc43)[C@H](O)[C@@H]2O)[C@@H](O)[C@H]1O` [Ap4A], the Kd in assay [1] was below 10 nM; in assay [2], 10 to 100 nM. Besides, the “Tm, °C / CDC” value in assay [3] (20 µM Ap4A) stood at 61.5 °C.

Take `Nc1ncnc2c1ncn2[C@@H]1O[C@H](COP(=O)(O)O)[C@@H](O)[C@H]1O` [AMP]: the “Tm, °C / ΔdhPPase” value in assay [4] came out at 68.6 °C. Also, the “Tm, °C / dhPPase” value in assay [5] was determined as 67.4 °C. The “Tm, °C / CDC” value in assay [3] (200 µM AMP) was 66.5 °C.
